This is an account of results in PMC8074465, “Synthesis of oxadiazole-2-oxide derivatives as potential drug candidates for schistosomiasis targeting SjTGR” (Parasites & Vectors, 2021).

Structures are written as SMILES. Where “and” joins values, the source holds several entries; their conditions need not be identical. Equal entries are not always repeated.

The target of the first test is T1, rSjTGR-Sec (Schistosoma japonicum, UniProt B5THG7).
T1 sequence (B5THG7 1-596): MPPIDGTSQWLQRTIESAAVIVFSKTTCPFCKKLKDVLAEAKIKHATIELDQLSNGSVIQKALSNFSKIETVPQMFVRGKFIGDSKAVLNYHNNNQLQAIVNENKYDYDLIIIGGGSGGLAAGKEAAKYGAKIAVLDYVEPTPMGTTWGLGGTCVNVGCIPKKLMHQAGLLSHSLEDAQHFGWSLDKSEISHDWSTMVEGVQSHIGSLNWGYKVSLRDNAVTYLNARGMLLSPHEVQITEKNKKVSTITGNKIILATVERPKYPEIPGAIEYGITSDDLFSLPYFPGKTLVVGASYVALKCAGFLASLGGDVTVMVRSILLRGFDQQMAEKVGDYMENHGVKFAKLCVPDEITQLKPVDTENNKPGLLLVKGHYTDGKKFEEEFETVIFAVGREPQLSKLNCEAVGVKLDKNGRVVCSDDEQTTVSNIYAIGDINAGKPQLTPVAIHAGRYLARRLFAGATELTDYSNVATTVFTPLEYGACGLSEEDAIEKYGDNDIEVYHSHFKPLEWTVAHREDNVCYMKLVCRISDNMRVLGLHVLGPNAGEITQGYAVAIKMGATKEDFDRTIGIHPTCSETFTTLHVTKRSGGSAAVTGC
Kind of test: Inhibition of TrxR activity of rSjTGR-Sec (DTNB reduction, absorbance 412 nm). As to conditions: DTNB, pH 7.0, 25 °C, triplicate, >50 μM = flat response within range tested, read-out: IC50 of rSjTGR-Sec. Format: biochemical. Here is the method:
The rSjTGR-Sec was expressed and harvested as described previously. […] The rSjTGR-Sec was purified by His Mag™ Agarose beads according to manufacturer’s instructions. The concentration of purified rSjTGR-Sec was determined using a Bradford assay kit (Sangon, China), and the protein was identified by sodium dodecyl sulfate polyacrylamide gel electrophoresis (SDS-PAGE) and stored at 4 °C [20].
The novel furoxan derivatives in this work were dissolved in DMSO with a storage solution concentration of 64 millimoles per liter. The analysis of TrxR activity of SWAP containing wtSjTGR and rSjTGR-Sec was performed based on methods described previously. Analysis of the inhibitory activity of the compounds against the TrxR activity of SWAP containing wtSjTGR and rSjTGR-Sec described in this paper was also based on a previously described method. The reaction was performed in 0.1 M potassium phosphate buffer (pH 7.0) containing 10 mM EDTA, 100 µM nicotinamide adenine dinucleotide phosphate (NADPH), 0.2 µg supernatant of SWAP containing wtSjTGR or 0.6 µg rSjTGR-Sec, and the studied compounds with different concentrations at 25 °C in a final volume of 200 μL, and was initiated by adding 3 mM DTNB. […] All assays were done in triplicate.
Take `[O-][n+]1onc(-c2ccncc2)c1CO` [6a, 3-(hydroxymethyl)-4-(pyridin-4-yl)-1,2,5-oxadiazole 2-oxide]: the concentration for half-maximal inhibition (IC50) worked out at 0.036 ± 0.002 µM. Same read-out and setting: with `[O-][n+]1onc(-c2cccnc2)c1CO` [6b, 3-(hydroxymethyl)-4-(pyridin-3-yl)-1,2,5-oxadiazole 2-oxide] the figure was 0.39 ± 0.02 µM; with `COc1ccc(-c2no[n+]([O-])c2CO)cn1` [6c, 3-(hydroxymethyl)-4-(6-methoxypyridin-3-yl)-1,2,5-oxadi-azole 2-oxide], 2.4 µM and 2.38 µM; with `[O-][n+]1onc(-c2ccc(C(F)(F)F)nc2)c1CO` [6d, 3-(hydroxymethyl)-4-(6-(trifluoromethyl)pyridine-3-yl)-1,2,5-oxadiazole 2-oxide], 0.0558 ± 0.00318 µM. Same read-out and setting: with `CC(=O)OCc1c(-c2ccncc2)no[n+]1[O-]` [7aa, 3-(acetoxymethyl)-4-(pyridin-4-yl)-1,2,5-oxadiazole 2-oxide] the figure was > 50 µM; with `CCC(=O)OCc1c(-c2ccncc2)no[n+]1[O-]` [7ab, 3-((propionyloxy)methyl)-4-(pyridin-4-yl)-1,2,5-oxadiazole 2-oxide], > 50 µM.

Take `CCCC(=O)OCc1c(-c2ccncc2)no[n+]1[O-]` [7ac, 3-((butyryloxy)methyl)-4-(pyridin-4-yl)-1,2,5-oxadiazole 2-oxide]: the IC50 was > 50 µM.

As for `CC(C)(C)C(=O)OCc1c(-c2ccncc2)no[n+]1[O-]` [7ad, 3-((pivaloyloxy)methyl)-4-(pyridin-4-yl)-1,2,5-oxadiazole 2-oxide], the IC50 was > 50 µM. Turning to `O=C(CCl)OCc1c(-c2ccncc2)no[n+]1[O-]` [7ae, 3-((2-chloroacetoxy)methyl)-4-(pyridin-4-yl)-1,2,5-oxadiazole 2-oxide], the IC50 is > 50 µM. Same read-out and setting: in the case of `O=C(OCc1c(-c2ccncc2)no[n+]1[O-])c1ccccc1` [7af, 3-((benzoyloxy)methyl)-4-(pyridin-4-yl)-1,2,5-oxadiazole 2-oxide] it was 3.23 ± 0.05 µM. The same measure, in the same setting: in the case of `O=C(OCc1c(-c2ccncc2)no[n+]1[O-])c1ccc(F)cc1` [7ag, 3-(((4-fluorobenzoyl)oxy)methyl)-4-(pyridin-4-yl)-1,2,5-oxadiazole 2-oxide] it was > 50 µM; in that of `O=C(OCc1c(-c2ccncc2)no[n+]1[O-])c1c(F)c(F)c(F)c(F)c1F` [7ah, 3-(((perfluorobenzoyl)oxy)methyl)-4-(pyridin-4-yl)-1,2,5-oxadiazole 2-oxide], > 50 µM; in that of `O=C(OCc1c(-c2ccncc2)no[n+]1[O-])c1cc(C(F)(F)F)cc(C(F)(F)F)c1` [7ai, 3-(((3,5-bis(trifluoromethyl)benzoyl)oxy)methyl)-4-(pyridin-4-yl)-1,2,5-oxadiazole 2-oxide], > 50 µM. On the same count and under the same terms, with `CC(=O)OCc1c(-c2cccnc2)no[n+]1[O-]` [7ba, 3-(acetoxymethyl)-4-(pyridin-3-yl)-1,2,5-oxadiazole 2-oxide] the figure was > 50 µM; with `CCC(=O)OCc1c(-c2cccnc2)no[n+]1[O-]` [7bb, 3-((propionyloxy)methyl)-4-(pyridin-3-yl)-1,2,5-oxadiazole 2-oxide], > 50 µM.

`CCCC(=O)OCc1c(-c2cccnc2)no[n+]1[O-]` [7bc, 3-((butyryloxy)methyl)-4-(pyridin-3-yl)-1,2,5-oxadiazole 2-oxide]: the IC50 is > 50 µM. The same measure, in the same setting: with `CC(C)(C)C(=O)OCc1c(-c2cccnc2)no[n+]1[O-]` [7bd, 3-((pivaloyloxy)methyl)-4-(pyridin-3-yl)-1,2,5-oxadiazole 2-oxide] the figure was > 50 µM.

For the molecule `O=C(CCl)OCc1c(-c2cccnc2)no[n+]1[O-]` [7be, 3-((2-chloroacetoxy)methyl)-4-(pyridin-3-yl)-1,2,5-oxadiazole 2-oxide], the IC50 was 14.8 ± 3.67 µM. Consider `O=C(OCc1c(-c2cccnc2)no[n+]1[O-])c1ccccc1` [7bf, 3-((benzoyloxy)methyl)-4-(pyridin-3-yl)-1,2,5-oxadiazole 2-oxide], for which the IC50 was > 50 µM. On the same count and under the same terms, in the case of `O=C(OCc1c(-c2cccnc2)no[n+]1[O-])c1ccc(F)cc1` [7bg, 3-(((4-fluorobenzoyl)oxy)methyl)-4-(pyridine-3-yl)-1,2,5-oxadiazole 2-oxide] it was > 50 µM; in that of `O=C(OCc1c(-c2cccnc2)no[n+]1[O-])c1c(F)c(F)c(F)c(F)c1F` [7bh, 3-(((perfluorobenzoyl)oxy)methyl)-4-(pyridine-3-yl)-1,2,5-oxadiazole 2-oxide], > 50 µM; in that of `O=C(OCc1c(-c2cccnc2)no[n+]1[O-])c1cc(C(F)(F)F)cc(C(F)(F)F)c1` [7bi, 3-(((3,5-bis(trifluoromethyl)benzoyl)oxy)methyl)-4-(pyridin-3-yl)-1,2,5-oxadiazole 2-oxide], > 50 µM. Same read-out and setting: in the case of `C=CC(=O)OCc1c(-c2cccnc2)no[n+]1[O-]` [7bj, 3-((acryloyloxy)methyl)-4-(pyridin-3-yl)-1,2,5-oxadiazole 2-oxide] it was > 50 µM; in that of `O=C(OCc1c(-c2cccnc2)no[n+]1[O-])c1cccs1` [7bk, 4-(pyridin-3-yl)-3-(((thiophene-2-carbonyl)oxy)methyl) -1,2,5-oxadiazole 2-oxide], > 50 µM; in that of `COc1ccc(-c2no[n+]([O-])c2COC(C)=O)cn1` [7ca, 3-(acetoxymethyl)-4-(6-methoxypyridin-3-yl)-1,2,5-oxadiazole 2-oxide], > 50 µM.

With `COc1ccc(-c2no[n+]([O-])c2COC(=O)c2ccccc2)cn1` [7cf, 3-((benzoyloxy)methyl)-4-(6-methoxypyridin-3-yl)-1,2,5-oxadiazole 2-oxide], the IC50 was > 50 µM.

Turning to `CC(=O)OCc1c(-c2ccc(C(F)(F)F)nc2)no[n+]1[O-]` [7da, 3-(acetoxymethyl)-4-(6-(trifluoromethyl)pyridin-3-yl)-1,2,5-oxadiazole 2-oxide], the IC50 is > 50 µM. Take `O=C(OCc1c(-c2ccc(C(F)(F)F)nc2)no[n+]1[O-])c1ccccc1` [7df, 3-((benzoyloxy)methyl)-4-(6-(trifluoromethyl)pyridin-3-yl)-1,2,5-oxadiazole 2-oxide]: the IC50 is > 50 µM. The same measure, in the same setting: in the case of `[O-][n+]1onc(-c2ccncc2)c1CNc1ccccc1` [9aa, 3-((phenylamino)methyl)-4-(pyridin-4-yl)-1,2,5-oxad-iazole 2-oxide] it was > 50 µM. On the same count and under the same terms, in the case of `[O-][n+]1onc(-c2ccncc2)c1CNc1ccc(OC(F)(F)F)cc1` [9ab, 4-(pyridin-4-yl)-3-(((4-(trifluoromethoxy)phenyl)amino)methyl)-1,2,5-oxadiazole 2-oxide] it was 1.52 ± 0.2 µM; in that of `[O-][n+]1onc(-c2ccncc2)c1CN1CCN(c2ccc(F)cc2)CC1` [9ac, 3-((4-(4-fluorophenyl)piperazin-1-yl)methyl)-4-(pyridin-4-yl)-1,2,5-oxadiazole 2-oxide], > 50 µM; in that of `[O-][n+]1onc(-c2ccncc2)c1CN1CCN(c2cccc(C(F)(F)F)c2)CC1` [9ad, 4-(pyridin-4-yl)-3-((4-(3-(trifluoromethyl)phenyl)piperazin-1-yl)methyl)-1,2,5-oxadiazole 2-oxide], > 50 µM. On the same count and under the same terms, in the case of `[O-][n+]1onc(-c2cccnc2)c1CNc1ccccc1` [9ba, 3-((phenylamino)methyl)-4-(pyridin-3-yl)-1,2,5-oxadiazole 2-oxide] it was > 50 µM; in that of `[O-][n+]1onc(-c2cccnc2)c1CNc1ccc(OC(F)(F)F)cc1` [9bb, 4-(pyridin-3-yl)-3-(((4-(trifluoromethoxy)phenyl)amino)methyl)-1,2,5-oxadiazole 2-oxide], > 50 µM. Consider `[O-][n+]1onc(-c2cccnc2)c1CN1CCN(c2ccc(F)cc2)CC1` [9bc, 3-((4-(4-fluorophenyl)piperazin-1-yl)methyl)-4-(pyridin-3-yl)-1,2,5-oxadiazole 2-oxide], for which the IC50 is > 50 µM.

The same test, now with this note: IC50 of rSjTGR-Sec, DTNB, pH 7.0, 25 °C, triplicate, >50 μM = flat response within range tested.
In the case of `Cc1ccc(S(=O)(=O)N(Cc2c(-c3cccnc3)no[n+]2[O-])O[Si](C)(C)C(C)(C)C)cc1` [9be, 3-(((N-((tert-butyldimethylsilyl)oxy)-4-methylphenyl)sulfonamido)methyl)-4-(pyridin-3-yl)-1,2,5-oxadiazole 2-oxide], the IC50 was determined as 0.22 ± 0.01 µM.

The test is the same for the next values; noted with them: furoxan as positive control.
For `O=C(CCl)OCc1c(-c2ccncc2)no[n+]1[O-]` [7ae, 3-((2-chloroacetoxy)methyl)-4-(pyridin-4-yl)-1,2,5-oxadiazole 2-oxide], the “inhibitory effect on rSjTGR-Sec (in words)” value is given as “did not show an effective inhibitory effect”. Turning to `COc1ccc(-c2no[n+]([O-])c2COC(=O)c2ccccc2)cn1` [7cf, 3-((benzoyloxy)methyl)-4-(6-methoxypyridin-3-yl)-1,2,5-oxadiazole 2-oxide], the “inhibitory effect on rSjTGR-Sec (in words)” value was “did not show an inhibitory effect”.

The same test, now with this note: read-out: IC50 of rSjTGR-Sec.
`[O-][n+]1onc(-c2ccncc2)c1CO` [6a, 3-(hydroxymethyl)-4-(pyridin-4-yl)-1,2,5-oxadiazole 2-oxide]: the IC50 worked out at 0.036 µM. The same measure, in the same setting: with `[O-][n+]1onc(-c2ccc(C(F)(F)F)nc2)c1CO` [6d, 3-(hydroxymethyl)-4-(6-(trifluoromethyl)pyridine-3-yl)-1,2,5-oxadiazole 2-oxide] the figure was 0.0075 µM and 0.0558 µM.

For orientation: IC50 means the midpoint of a concentration-inhibition curve.
